According to patent US20180296523A1, “USE OF POLYMETHOXYLATED FLAVONES TO AMELIORATE CIRCADIAN RHYTHM DISORDERS” (THE BOARD OF REGENTS OF THE UNIVERSITY OF TEXAS SY, priority 2017, published 2018):
“Also recorded” adds a separate entry of the source.

Assays:
Cps1 gene = conditions: Clock^Δ19/Δ19 mutant mice; cited from earlier work
[1] = tested on: PER2::Luc Clock^Δ19/Δ19 fibroblast cells; assay: Reporter rhythm in homozygous Clock^Δ19/Δ19 reporter cells; assay type: cell-based, mouse; conditions: clock-disrupted homozygous Clock^Δ19/Δ19 cells
regular chow-fed mice = assay: Metabolic homeostasis in regular chow-fed mice; assay type: in vivo, mouse; conditions: regular chow (RC) feeding, 9-week treatment
Protocol: (§1) Weekly body weight was monitored in different treatment mice for 10 weeks. Body mass composition was measured at the end of experiments using a minispec mqNMR spectrometer (Bruker Optics, Texas) (Garcia et al., 2013). A control group of mice were fed with regular chow diet (Purina 5001) in parallel with the two treatment groups in HFD. For db/db and db/db Clock^Δ19/Δ19 mice, male mice at 6-8 weeks of age were group-housed (2-3/cage) and maintained on regular chow diets. Mice were subjected to oral gavage with either DMSO or NOB as described above.
(§2) Glucose tolerance test (GTT) and insulin tolerance test (ITT) were performed largely as described (He et al., 2015; Jeong et al., 2015). Briefly, after overnight and 5-hr fasting, GTT and ITT were conducted at ZT2 and ZT8 respectively. Glucose levels were measured from tail blood before and 15, 30, 60, or 120 min after injection of either 1 g/kg glucose or 0.75 U/kg insulin (Sigma) at ZT2 and ZT8 respectively by using the ONETOUCH UltraMini blood glucose monitoring system (LifeScan). Serum insulin levels were measured with the Rat/Mouse Insulin Elisa kit (Millipore) according to the manufacturer's instructions. The plasma samples were collected at ZT2 as described above for lipid assays.

[2] = tested on: db/db and db/db Clock^Δ19/Δ19 mice; assay: db/db diabetic mice and db/db Clock^Δ19/Δ19 double-mutant mice; assay type: in vivo, mouse
Protocol: as §1
Serum samples were obtained at ZT2 from treated mice as previously described (Jeong et al., 2015). Hepatic triglyceride and cholesterol were extracted as previously described (Liu et al., 2012). The triglyceride and cholesterol levels in liver and serum were assessed by Serum Triglyceride Determination Kit (Sigma) and Cholesterol Assay Kit (Cayman), respectively. The assay plates were read by a TECAN M200 instrument (Tecan) following the manufacturer's instructions.
as §2

[3] = tested on: peripheral tissue explants from PER2::Luc reporter mice; assay: PER2::Luc reporter rhythms in peripheral tissue explants; assay type: cell-based, mouse
Protocol: (§3) The chemical screen for circadian clock modulators was conducted at the Chemical Genomics Core facility at the UTHSC-H. The in-house chemical library screened consists of compounds from NIH Clinical Collection, NCI collection and Microsource Spectrum Collection. The screening was conducted largely based on the protocol previously described (Chen et al., 2012). Briefly, 15,000 immortalized fibroblast cells from Clock^Δ19/+ heterozygous mice expressing the PER2::Luc bioluminescence reporter were plated into each well of 96-well plates, and incubated for 3-4 d to allow growth to confluency. Cells were then incubated with 5 μM forskolin for 1-2 h followed by the addition of chemical compounds to the plates with robotic arms (Beckman), and then subjected to continuous monitoring over several days in a temperature-controlled EnVision microplate reader (Perkin Elmer). Data analysis was carried out by using the MultiCycle software (Actimetrics) for measurement of period, phase, and amplitude. […] NOB and a structurally related analog Naringin (NAR) were re-ordered from commercial sources including Sigma and GenDEPOT and dose response validation was conducted using PER2::LucSV reporter fibroblast cells which express stronger bioluminescence signals and thus allow precise measurements of circadian clock effects of compounds (Chen et al., 2012). Tissue explant experiments were conducted as described previously (Chen et al., 2012).

[4] = other studies (Kumar et al., 2012; Singh et al., 2011); cited from earlier work
RORγt = biological target: T1, RORγt (Homo sapiens, UniProt P51449); conditions: Huh et al., 2011; cited from earlier work
T1 sequence (P51449 1-497 isoform P51449-2): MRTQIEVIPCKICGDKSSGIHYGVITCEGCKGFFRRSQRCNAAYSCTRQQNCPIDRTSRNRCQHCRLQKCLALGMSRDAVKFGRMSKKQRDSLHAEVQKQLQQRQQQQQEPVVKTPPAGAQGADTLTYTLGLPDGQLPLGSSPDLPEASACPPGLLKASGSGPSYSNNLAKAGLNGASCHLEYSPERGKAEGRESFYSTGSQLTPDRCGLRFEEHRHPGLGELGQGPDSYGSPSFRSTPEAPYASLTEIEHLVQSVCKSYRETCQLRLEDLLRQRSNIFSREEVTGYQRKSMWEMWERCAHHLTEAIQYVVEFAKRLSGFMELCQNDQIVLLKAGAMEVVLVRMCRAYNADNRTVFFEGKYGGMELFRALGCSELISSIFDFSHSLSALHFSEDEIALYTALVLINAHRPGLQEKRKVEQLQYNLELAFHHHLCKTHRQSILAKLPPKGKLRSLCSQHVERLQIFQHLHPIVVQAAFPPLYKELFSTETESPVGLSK

[5] = tested on: SCN explants from PER2::Luc WT reporter mice; assay: PER2::Luc reporter rhythms in SCN explants; assay type: cell-based, mouse; conditions: listed as NOB
Protocol: as §3, with “Tissue explant experiments were conducted as described previously (Chen et al., 2012).” left out

COc1ccc(-c2cc(=O)c3c(OC)c(OC)c(OC)c(OC)c3o2)cc1OC [nobiletin]
transcriptional induction of the Cps1 gene (Cps1 gene): impaired
restoring reporter rhythm [1]: ineffective in restoring the rhythm; also recorded: not able to rescue reporter rhythms
metabolic homeostasis (regular chow-fed mice): did not show significantly beneficial effects
metabolic homeostasis (regular chow-fed mice; listed as NOB): did not effect metabolic homeostasis
overall metabolic response to treatment ([2]; db/db Clock^Δ19/Δ19 double-mutant mice, in contrast to db/db): markedly attenuated response
circulating insulin levels ([2]; db/db Clock^Δ19/Δ19 mutant mice): strongly reduced circulating insulin levels
circulating insulin levels ([2]; db/db mice): strongly reduced circulating insulin levels
fasting glucose levels ([2]; db/db mice): lowered fasting glucose levels
glucose tolerance (GTT) ([2]; db/db mice): improved
insulin sensitivity (ITT) ([2]; db/db mice): improved
serum total cholesterol (TC) ([2]; db/db mice): reduced
serum total triglyceride (TG) ([2]; db/db mice): reduced
body weight gain ([2]; db/db mice, RC, 10 weeks): strongly blunted body weight gain
reporter rhythm in pituitary explants ([3]; PER2::Luc Clock^Δ19/+ reporter mice): Clock-enhancing effects
reporter rhythm in liver explant ([3]; PER2::Luc WT reporter mice): Clock-enhancing effects
reporter rhythm in lung explant ([3]; PER2::Luc WT reporter mice): Clock-enhancing effects
reporter rhythm in pituitary explants ([3]; PER2::Luc WT reporter mice): Clock-enhancing effects
PER2::Luc reporter rhythms in peripheral tissue explants ([3]; from both Clock^Δ19/+ and WT reporter knockin mice): enhanced PER2::Luc reporter rhythms
NOB levels 24 hr after administration [4]: able to measure NOB levels 24 hr after administration
effect on RORγt in primary screen (RORγt): activated RORγt
reporter rhythms in SCN explants [5]: did not enhance reporter rhythms
